Activity calls are given as the source filed them. The rule behind the calls is not given here.
System: Mycobacterium tuberculosis
Experiment: Antimycobacterial activity against Mycobacterium tuberculosis by radiorespirometric bioassay
Assay type: functional, organism-based

SMILES: CC(C)=CCC/C(C)=C/CC/C(C)=C/CO
- Activity: Active

From ChEMBL document CHEMBL1150637, “African elephant sesquiterpenes. II. Identification and synthesis of new derivatives of 2,3-dihydrofarnesol” (J Nat Prod, 2002)
